Data: patent US10844066B2, “2-amino-N-[7-methoxy-2, 3-dihydroimidazo-[1,2-c] quinazolin-5-yl] pyrimidine-5-carboxamides” (Bayer Pharma Aktiengesellschaft, priority 2016, dated 2020)

Columns and labels:
[1] = molecular target: T1, human p110α subunit of PI3K (PI3Kα) (Homo sapiens, UniProt P42336); test: Solid-Phase Lipid Kinase p110α assay; assay type: biochemical; conditions: recombinant truncated (ΔN 1-108) p110α, 7.5 ng/well; final 10 μM ATP; RT 2 hours
T1 construct: His6 (N); made in house; host or cells: S. frugiperda 9 (Sf9) insect cells
T1 sequence (P42336 109-1068): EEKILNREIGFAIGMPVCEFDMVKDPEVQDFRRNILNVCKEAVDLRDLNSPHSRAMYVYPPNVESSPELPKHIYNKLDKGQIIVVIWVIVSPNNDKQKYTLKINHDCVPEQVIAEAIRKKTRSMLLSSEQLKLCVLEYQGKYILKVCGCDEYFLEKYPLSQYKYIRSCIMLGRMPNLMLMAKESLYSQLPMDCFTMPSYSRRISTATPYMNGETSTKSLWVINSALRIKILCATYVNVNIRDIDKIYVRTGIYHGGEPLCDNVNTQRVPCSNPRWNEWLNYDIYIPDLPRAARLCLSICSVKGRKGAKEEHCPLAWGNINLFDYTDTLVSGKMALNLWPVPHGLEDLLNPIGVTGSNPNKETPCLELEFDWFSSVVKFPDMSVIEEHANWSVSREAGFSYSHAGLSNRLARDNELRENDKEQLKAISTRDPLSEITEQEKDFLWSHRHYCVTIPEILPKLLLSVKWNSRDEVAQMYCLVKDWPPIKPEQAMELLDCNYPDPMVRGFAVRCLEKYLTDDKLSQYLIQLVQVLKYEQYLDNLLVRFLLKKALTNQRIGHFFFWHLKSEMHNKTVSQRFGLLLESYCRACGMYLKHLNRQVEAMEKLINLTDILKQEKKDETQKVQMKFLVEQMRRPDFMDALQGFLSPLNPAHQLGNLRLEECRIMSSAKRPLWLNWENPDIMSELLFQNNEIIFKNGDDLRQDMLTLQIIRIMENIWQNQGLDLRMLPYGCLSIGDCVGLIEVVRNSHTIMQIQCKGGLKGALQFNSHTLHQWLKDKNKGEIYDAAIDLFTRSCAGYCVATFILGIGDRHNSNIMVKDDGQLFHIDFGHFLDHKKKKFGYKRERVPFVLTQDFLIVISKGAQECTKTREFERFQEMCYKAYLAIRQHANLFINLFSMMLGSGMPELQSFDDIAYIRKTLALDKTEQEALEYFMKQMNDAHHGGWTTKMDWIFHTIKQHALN
Excerpt: [Determination of IC50 Values of Compounds in Kinase Assay of PI3Kα]
Phosphatidylinositol (Ptdlns) and phosphatidylserine (PtdSer) were purchased from DOOSAN SERDARY RESEARCH LABORATORIES (Toronto, Canada). Recombinant truncated forms (ΔN 1-108) of the human p110α and p110β subunits of PI3K with N-terminal His6-Tags were expressed in S. frugiperda 9 insect cells. Recombinant human PI3Kγ (full length human PI3K p1107 fused with a His6-tag at the C-terminus expressed in S. frugiperda 9 insect cells) was obtained from ALEXIS BIOCHEMICALS (#201-055-C010; San Diego, Calif.). [γ^33P]ATP and unlabeled ATP were purchased from AMERSHAM PHARMACIA BIOTECH (Buckinghamshire, UK) and ROCHE DIAGNOSTICS (Mannheim, Germany), respectively. Scintillation cocktails Ultima Gold™ scintillation cocktail were purchased from PERKIN ELMER. Maxisorp™ plates were purchased from NALGE NUNC INTERNATIONAL K.K. (Tokyo, Japan). All other chemicals not further specified were from WAKO PURE CHEMICALS (Osaka, Japan). […]
(§1) The radioactivity incorporated into the immobilized PI substrate was determined with a BetaPlate Liquid Scintillation Counter (PerkinElmer).
(§2) The inhibition percent at each concentration of compound was calculated, and IC50 values were determined from the inhibition of curve.

[2] = molecular target: T2, human p110β subunit of PI3K (PI3Kβ) (Homo sapiens, UniProt P42338); test: Solid-Phase Lipid Kinase p110β assay; assay type: biochemical; conditions: recombinant truncated (ΔN 1-108) p110β, 7.5 ng/well; otherwise as PI3Kα assay
T2 construct: His6 (N); made in house; host or cells: S. frugiperda 9 (Sf9) insect cells
T2 sequence (P42338 109-1070): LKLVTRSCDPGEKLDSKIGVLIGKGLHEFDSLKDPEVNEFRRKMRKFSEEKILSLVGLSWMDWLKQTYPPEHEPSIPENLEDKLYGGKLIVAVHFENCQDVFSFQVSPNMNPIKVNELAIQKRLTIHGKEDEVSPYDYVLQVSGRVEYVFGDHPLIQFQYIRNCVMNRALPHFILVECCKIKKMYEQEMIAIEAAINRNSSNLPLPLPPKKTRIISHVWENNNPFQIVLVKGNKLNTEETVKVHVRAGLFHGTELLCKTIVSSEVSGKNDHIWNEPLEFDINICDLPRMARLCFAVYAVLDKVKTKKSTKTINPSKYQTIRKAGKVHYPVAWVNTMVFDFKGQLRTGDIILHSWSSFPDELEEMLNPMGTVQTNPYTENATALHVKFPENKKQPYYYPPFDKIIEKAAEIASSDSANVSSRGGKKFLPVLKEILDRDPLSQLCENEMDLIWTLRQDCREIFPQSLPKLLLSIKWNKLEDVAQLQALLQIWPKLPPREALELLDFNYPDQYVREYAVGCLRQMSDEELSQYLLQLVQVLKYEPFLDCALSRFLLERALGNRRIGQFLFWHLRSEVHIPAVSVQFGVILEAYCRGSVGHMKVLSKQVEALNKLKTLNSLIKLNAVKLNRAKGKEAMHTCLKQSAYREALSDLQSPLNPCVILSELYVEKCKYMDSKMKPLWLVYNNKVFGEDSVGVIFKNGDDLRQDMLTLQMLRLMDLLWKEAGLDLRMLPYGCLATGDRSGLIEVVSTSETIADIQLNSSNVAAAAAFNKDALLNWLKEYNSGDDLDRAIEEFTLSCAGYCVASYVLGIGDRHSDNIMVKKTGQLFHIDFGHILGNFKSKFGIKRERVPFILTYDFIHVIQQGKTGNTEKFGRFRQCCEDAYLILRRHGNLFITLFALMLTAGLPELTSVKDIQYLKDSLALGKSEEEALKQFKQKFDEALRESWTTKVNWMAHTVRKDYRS
Experimental: To assess inhibition of PI3Kα by compounds, the Maxisorp™ plates were coated with 50 μL/well of a solution containing 50 μg/ml Ptdlns and 50 μg/ml PtdSer dissolved in chloroform:ethanol (3:7). The plates were subsequently air-dried by incubation for at least 2 hours in a fume hood. The reaction was set up by mixing 25 μL/well of assay buffer 2× (100 mM MOPSO/NaOH, 0.2 M NaCl, pH 7.0, 8 mM MgCl2, 2 mg/mL BSA (fatty acid-free)), and 7.5 ng/well PI3Kα in the lipid pre-coated plate. 10× test compounds were added in 2% DMSO. The reaction was started by adding 5 μL/well of a 40 μM ATP mix (final 10 μM ATP; 20 μCi/ml[γ^33P]ATP). After incubation at RT for 2 hours, the reaction was terminated by adding 5 μl/well stop solution (25 mM EDTA, pH 8.0). The plate was then washed twice with Tris-buffered saline (TBS, pH 7.4). Ultima Gold™ (PERKINELMER) scintillation mix was added at 25 μL/well.
as §1, §2
A recombinant truncated form (ΔN 1-108) of the human p110β or […] subunit of PI3K with an N-terminal His6-Tag was expressed in S. frugiperda 9 insect cells. […]

Row | IC50 [1] [nM] | IC50 [2] [nM] | Compound
1 | 0.7 |  | COc1c(OCCCN2CCOCC2=O)ccc2c1N=C(NC(=O)c1cnc(N)nc1)N1CCN=C21 [drawing 15, 2-amino-N-{7-methoxy-8-[3-(3-oxomorpholin-4-yl)propoxy]-2,3-dihydroimidazo[1,2-c]quinazolin-5-yl}pyrimidine-5-carboxamide]
2 |  | 13 | COc1c(OCCCN2CCOCC2=O)ccc2c1N=C(NC(=O)c1cnc(N)nc1)N1CCN=C21 [drawing 16, 2-amino-N-{7-methoxy-8-[3-(3-oxomorpholin-4-yl)propoxy]-2,3-dihydroimidazo[1,2-c]quinazolin-5-yl}pyrimidine-5-carboxamide]
